{
  "source": "patent US6831069B2",
  "about": "“Pyrrolo[2,3-d]pyrimidine nucleoside analogs” (priority 1999, dated 2004)",
  "key": {"activated human T cells": {"test_system": "activated human T cells", "assay": "T cell proliferation, [3H]-thymidine incorporation", "assay_type": "cell-based", "settings": "48 h, read-out: peak inhibition of T cell proliferation"}, "PHA activated PBMC": {"test_system": "PHA activated PBMC", "assay": "ELISA spot assay, number of cytokine producing cells", "assay_type": "cell-based, human", "settings": "10 μM"}, "CD3+ T cells": {"test_system": "CD3+ T cells", "assay": "Viability by propidium iodide exclusion", "assay_type": "cell-based, human", "procedure": "For determination of cytokine protein levels, T-cells (1×10^6 cells in a volume of 1 ml) were activated by the addition of 10 ng PMA plus 0.5 μg ionomycin (both from Calbiochem, La Jolla, Calif.) and incubated in 24 well plates in the presence of 0 to 20 μM nucleoside for up to 48 h at 37° C. and 5% CO2 in a humidified incubator. Following activation, supernatants were analysed for cell-derived cytokine production. For proliferation and viability studies, the protocol as above was modified to a 96 well-plate format using 0.2×10^6 cells in a volume of 0.2 ml and activation with 2 ng PMA and 0.1 μg ionomycin. In separate experiments, 5×10^6 T cells in 2 ml were activated with 20 ng PMA plus 1 μg ionomycin. Here total RNA was isolated from T cells following 6-24 h incubation and analyzed by RT-PCR to determine mRNA levels of various cytokines and inflammatory mediators. […]\nT cell proliferative responses were assessed by measuring [3H]-thymidine (1 μCi, ICN, Irvine, Calif.) incorporation for the last 16 h of each assay. Cells were harvested onto filters and DNA synthesis was measured following scintillation counting on a Wallac Betaplate counter (Perkin-Elmer/Wallac, Gaithersburg, Md.). Viability was assessed by propidium iodide (5 μg/ml) exclusion in untreated and nucleoside-treated human T cells stained with FITC-CD3 (Becton Dickinson, San Jose, Calif.). […]"}, "[1]": {"test_system": "BALB/c and C57BL/6 lymph node CD4+ T cells", "assay": "Generation of murine Th1 cells, IL-4 and IFNγ ELISA after restimulation", "assay_type": "cell-based, mouse", "design": "murine IFNγ secretion upon restimulation: dose or concentration left out as unconfirmed", "settings": "Th1 conditions (anti-CD3, IL-2, IFNγ, IL-12), both mouse strains"}},
  "data": [
    {"smiles": "N=C(N)c1cn([C@@H]2O[C@H](CO)[C@@H](O)[C@H]2O)c2nc[nH]c(=O)c12", "note": "[ICN 10776, 7-β-D-ribofuranosyl-4-oxopyrrolo-[2,3-d]pyrimidine-5-carboxamidine]", "values": [
      {"measurement": "inhibition at 20 µM", "setting": "activated human T cells", "value": 99, "unit": "%"},
      {"measurement": "number of IL-2-producing cells", "setting": "PHA activated PBMC; 24 h", "value": "dramatic fall"},
      {"measurement": "number of IFNγ-producing cells", "setting": "PHA activated PBMC; 48 h", "value": "dramatic fall"},
      {"measurement": "number of IL-4 producing cells", "setting": "PHA activated PBMC; 48 h", "value": "substantial increase"},
      {"measurement": "number of IL-5 producing cells", "setting": "PHA activated PBMC; 48 h", "value": "substantial increase"},
      {"measurement": "viability of resting CD3+ T cells", "setting": "CD3+ T cells; 20 μM, 48 h incubation, decrease from 95%", "value": 85, "unit": "%"},
      {"measurement": "viability of PMA-ION activated CD3+ T cells versus no nucleoside", "setting": "CD3+ T cells; 0.2 to 20 μM, 8 h, 24 h, 48 h", "value": "no sign difference"},
      {"measurement": "murine IL-4 secretion upon restimulation", "setting": "[1]; co-incubation with 10 mM ICN 10776", "value": "elevated levels of IL-4"},
      {"measurement": "murine IFNγ secretion upon restimulation", "setting": "[1]; co-incubation with ICN 10776", "value": "low levels of IFNγ"}
    ]}
  ]
}
